These results are taken from patent US10426777B2, “Methods used to treat cancer” (THE TRANSLATIONAL GENOMICS RESEARCH INSTITUTE, priority 2009, dated 2019).

The structures appear in SMILES notation.

Data set [1] deals with AKT. The data set can be described thus: AKT activation (phosphorylation) by immunoblot. As to conditions: T98G and GBM43 cells; PPF 5 μM. The class given is cell-based, Human. The method, then:
(§1) FIGS. 26A-26C depict that PPF sensitizes GBM cells to TMZ and radiotherapy. FIG. 26A—A clonogenic assay was used to assess T98G and GBM43 cells survival after TMZ and radiation treatment. Cells were pre-treated with 5 μM PPF for 24 hours, and then either treated with 250 μM TMZ for 24 hours or exposed to 2 Gy radiation. Graph depicts the surviving fraction in the treated cells compared to vehicle (VC) treated or non-treated (NT) cells, **p<0.01. FIG. 26B—T98G glioma cells were treated with vehicle, PPF (5 μM), TMZ (250 μM), and PPF in combination with TMZ. TMZ-induced apoptosis was assayed by immunoblot analysis of cell lysates with an antibody to cleaved PARP. Immunoblotting for α-Tubulin was included as a loading control. FIG. 26C—T98G, GBM10, and GBM43 cells were treated with PPF (5 μM), lysed, and then immunoblotted to assess the activation of AKT and NF-κB. Immunoblotting for […] is included as a loading control.
(§2) Referring now to FIGS. 26A, 26B, and 26C: Knockdown of TROY expression with shRNA decreases TMZ resistance in GBM cells in vitro (See Reference 42). […] Following combination therapy, cells were trypsinized, counted, and plated in a 6-well culture dish at densities of 100, 250, and 500 cells per well in triplicate. Cells were incubated for 12 days then fixed, stained with 0.5% crystal violet solution, and counted manually by blinded observers. […]
A general note: In western blotting, separated proteins are transferred to a membrane and probed.

Data set [2] relates to T98G and GBM43 cells. The data set can be described thus: Clonogenic survival assay with TMZ or radiation. It is filed as cell-based, Human. The method, then:
as §1, §2

The test system of data set [3] is TROY. The data set can be described thus: TROY expression in GBM cells by immunoblotting (Western blot). The class given is cell-based, Human. How it is done: (§3) FIGS. 24A-24D illustrate that PPF treatment decreases TROY expression in GBM cells. FIG. 24A—a Western blot analysis of TROY expression in T98G cells. Cells were treated with PPF at indicated concentrations for 6 hrs, lysed, and cell lysates immunoblotted with anti-TROY antibody. Immunoblotting of α-Tubulin in cell lysates is included as a loading control. FIG. 24B—Western blot analysis of TROY expression in T98G, GBM43, and GBM10 cells. Cells were treated with PPF at indicated concentrations for 24 hrs, lysed, and cell lysates immunoblotted with anti-TROY and α-Tubulin antibodies. FIG. 24C—Western Blot analysis of TROY expression in GBM10 and GBM43 primary glioma cells. Cells were treated with 5 μM PPF, lysed at the indicated time-points, and the lysates immunoblotted with an anti-TROY antibody. Immunoblotting of β-Actin in cell lysates is included as a loading control. FIG. 24D—Western Blot analysis of T98G, GBM10 and GBM43 glioma cells treated with 5 μM PPF for 24 hours. Lysates were immunoblotted with anti-TROY, anti-TNFR1, anti-EGFR, and β-Actin antibodies.
Cell Culture Conditions: Human glioma cell line T98G (ATCC) was maintained in DMEM with high glucose (Invitrogen) supplemented with 10% heat-inactivated fetal bovine serum (FBS) (Invitrogen) in a 37° C., 5% CO2 atmosphere at constant humidity. The primary glioma patient derived xenograft (PDX) lines GBM10 and GBM43 were derived from patient surgical samples and maintained as flank xenografts in immunodeficient mice. GBM10 and GBM43 flank tumor were resected, brought to single cell suspension via mechanical dissociation, and maintained in DMEM+10% FBS for in vitro experiments. In the experiments with FBS stimulation, the cells were serum starved (DMEM+0.1% Bovine Serum Albumin (BSA)) for 16 hours before stimulation with 10% FBS in DMEM.
Referring now to FIGS. 24A, 24B, 24C, and 24D: The inventors investigated if PPF could be utilized pharmacologically to decrease TROY expression in GBM cells. The long-term established cell line T98G was first utilized to test the efficacy of PPF. Cells were treated with increasing concentration of PPF, 1 to 20 μM, lysed, and TROY expression assessed by immunoblotting. Briefly, monolayers of cells were washed in phosphate-buffered saline (PBS) containing 1 mM phenylmethylsulfonylfluoride and 1 mM sodium orthovanadate and then lysed in 2×SDS sample buffer containing protease and phosphatase inhibitors. Protein concentrations were determined using the BCA Assay (Pierce). Thirty micrograms of total protein was loaded per lane and separated by SDS-PAGE. […] Protein bands were detected using SuperSignal Chemiluminescent Substrate (Pierce) with a UVP BioSpectrum 500 Imaging System.

Data set [4] concerns T98G, GBM10, and GBM43 glioma cells. The data set can be described thus: Matrigel invasion assay. It is filed as cell-based, Human. To be noted: 5 μM PPF, 24 hours, 10% FBS. The method, then:
(§4) FIGS. 27A and 27B depict that PPF suppresses GBM cell invasion and Rac1 activation. FIG. 27A—T98G, GBM10, and GBM43 glioma cells were treated with 5 μM PPF and invasion was assayed over 24 hours utilizing a Matrigel invasion assay, *p<0.05. FIG. 27B—T98G glioma cells were serum starved, pre-incubated with 5 μM PPF or vehicle for 1 hour, and then stimulated with 10% FBS for 2-10 mins. Cell lysates were harvested and equal concentrations of protein were assessed for Rac1 activation.
(§5) Referring now to FIGS. 27A and 27B: The inventors next examined whether PPF inhibited TROY dependent glioma cell invasion. […] Briefly, 5.0×10^5 glioma cells were seeded in 100-mm diameter culture dishes and incubated overnight at 37° C. Subsequently, cells were serum starved for 16 hours at 37° C. Cells were then harvested, re-suspended in growth factor reduced Matrigel (Becton Dickinson) (1.0×10^5 cells/50 uL), added in triplicates to collagen-coated transwell chambers, and allowed to invade through Matrigel in presence of 10% FBS and/or 5 μM PPF. After incubation for 24 hours at 37° C., non-invaded cells were scrapped off the upper side of the membrane and cells invaded to the other side of the membrane were fixed with 4% paraformaldehyde (PFA) (Affymetrix) and stained with DAPI (Invitrogen). Nuclei of invaded cells were counted in five high power fields (HPF) with a 20× objective.

Data set [5] has as its system TNFR1. The data set can be described thus: TNFR1 expression in glioma cells by Western blot. It is filed as cell-based, Human. To be noted: T98G, GBM10 and GBM43 cells, 5 μM PPF, 24 hours. The method, then: as §3, with “FIG. 24D—Western Blot analysis of T98G, GBM10 and GBM43 glioma cells treated with 5 μM PPF for 24 hours. Lysates were immunoblotted with anti-TROY, anti-TNFR1, anti-EGFR, and β-Actin antibodies.” left out
(§6) Referring now to FIGS. 24A, 24B, 24C, and 24D: The inventors investigated if PPF could be utilized pharmacologically to decrease TROY expression in GBM cells. […] Cells were treated with increasing concentration of PPF, 1 to 20 μM, lysed, and TROY expression assessed by immunoblotting. […] Protein concentrations were determined using the BCA Assay (Pierce). […] Protein bands were detected using SuperSignal Chemiluminescent Substrate (Pierce) with a UVP BioSpectrum 500 Imaging System.

Data set [6] deals with NF-κB. The data set can be described thus: NF-κB activation (phosphorylation) by immunoblot. The class given is cell-based, Human. As to conditions: T98G and GBM43 cells; PPF 5 μM. How it is done:
as §1, §2

For data set [7], the system named is T98G, GBM10, and GBM43 cells. The data set can be described thus: CellTiterGlo glioma cell cytotoxicity / viability assay. It is filed as cell-based, Human. To be noted: all three GBM cell lines; PPF 0.5 to 20 μM; 72 hours. The method, then:
(§7) FIG. 25A—T98G, GBM43, and GBM10 cells were incubated with increasing concentrations of PPF (0, 5, 50, and 500 μM). After 0, 48, 96 and 144 hours of treatment, cell were trypsinized and counted using an automated cell counter. FIG. 24B—GBM43, GBM10, and T98G glioma cells were treated with increasing doses of PPF (0.5, 1, 5, 10, and 20 μM) in triplicate. The Cell Titer Glo (Promega) reagent was used to measure survival. Raw values were normalized on a plate-by-plate basis such that 100% cell viability was equivalent to the mean of vehicle wells and 0% cell viability was equivalent to the mean of the MG132 positive control. The normalized data was used to assess viability of glioma cells after PPF treatment.
(§8) Referring now to FIGS. 25A and 25B: To determine if PPF influences glioma cell proliferation, the inventors treated T98G, GBM10, and GBM43 cells with increasing concentrations of PPF and evaluated cell proliferation over the course of 144 hours. Briefly, 1.25×10^5 cells were seeded (n=3) in 12-well plates in 1 mL of DMEM supplemented with 10% FBS and allowed to attach at 37° for 16 hrs. […] After 0, 48, 96 and 144 hours of treatment, the cells were trypsinized and counted using the automated cell counter. […] Subsequently, 100 μL of CellTiterGlo® reagent was added to each well and luminescence was measured using Envision Reader. […]
A general note: In ATP-based viability assays light output follows the ATP content of the culture.

Data set [8] concerns EGFR. The data set can be described thus: EGFR expression in glioma cells by Western blot. It is filed as cell-based, Human. To be noted: T98G, GBM10 and GBM43 cells, 5 μM PPF, 24 hours. How it is done: as §3, with “FIG. 24D—Western Blot analysis of T98G, GBM10 and GBM43 glioma cells treated with 5 μM PPF for 24 hours. Lysates were immunoblotted with anti-TROY, anti-TNFR1, anti-EGFR, and β-Actin antibodies.” left out
as §6

The test system of data set [9] is T98G, GBM10, and GBM43 cells. The data set can be described thus: Lamellipodia formation and membrane ruffling (F-actin staining). To be noted: 5 μM PPF 1 hour, then 10% FBS 5 min. It is filed as cell-based, Human. How it is done: FIGS. 28A and 28B depict that PPF suppresses GBM cell membrane ruffling. FIG. 28A—GBM43 cells were preincubated with 5 μM PPF or vehicle for 1 hour prior to 10% FBS stimulation for 5 min. After FBS stimulation, cells were fixed, permeabilized, and stained for F-actin. For each experimental condition, at least 12 images were taken randomly. Arrowhead indicates membrane ruffles. FIG. 28B—Graph depicts the average lamellipodia in T98G, GBM10, and GBM43 cells in the presence or absence of 10% FBS with or without 5 μM PPF as indicated. Lamellipodia were traced using Image J software.
Referring now to FIGS. 28A and 28B: The inventors investigated lamellipodia formation and membrane ruffling. Briefly, glioma cells were plated onto 10-well glass slides pre-coated with 10 μg/ml laminin at the density of 3000 cells/well for 24 hours at 37° C. Subsequently, cells were serum starved for 16 hours. The cells were pre-incubated with 5 μM PPF or vehicle for 1 hour prior to 10% FBS stimulation for 5 min. After FBS stimulation, cells were fixed in 4% PFA, permeabilized with 0.1% Triton X-100, and incubated with Alexa Fluor® 555 Phalloidin (Invitrogen) to stain for F-actin. Slides were mounted with ProLong® reagent with DAPI and imaged using a Zeiss LSM 510 microscope. For each experimental condition, at least 12 images were randomly taken. Lamellipodia were traced using ImageJ software.

For data set [10], the system named is Rac1. The data set can be described thus: Rac1 activation assay after FBS stimulation. It is filed as cell-based, Human. As to conditions: T98G cells; 5 μM PPF 1 hour, then 10% FBS 2-10 mins. The method, then: as §4, §5
In data set [11] the test system is microglia. To be noted: Reference 41; cited from earlier work.
The subject of data set [12] is TROY. To be noted: Reference 41; cited from earlier work.
In data set [13] the test system is CNS-1 rat model. To be noted: systemic PPF treatment, via modulation of microglia; cited from earlier work.
For data set [14] the following is noted: clinical trials, cited from earlier work.
The test system of data set [15] is T98G, GBM10, and GBM43 cells. The data set can be described thus: Glioma cell proliferation by automated cell counting. It is filed as cell-based, Human. To be noted: doses up to 500 μM, 0-144 hours. The method, then:
as §7, §8

The subject of data set [16] is cleaved PARP. The data set can be described thus: Apoptosis by immunoblot for cleaved PARP. It is filed as cell-based, Human. To be noted: T98G cells; PPF 5 μM, TMZ 250 μM. The method, then:
as §1, §2

As to `CCCn1cnc2c1c(=O)n(CCCCC(C)=O)c(=O)n2C` [PPF, 3-methyl-1-(5-oxohexyl)-7-propyl-3,7-dihydro-1H-purine-2,6-dione], in data set [1], the AKT phosphorylation entry was “effectively decreased”. Moreover, in [2] (GBM cells, 5 μM PPF 24 hours then 2 Gy), the “surviving fraction, PPF and 2Gy radiation compared to 2Gy radiation alone” value is “significantly decreased”. The “surviving fraction, PPF in combination with TMZ compared to TMZ alone” value in data set [2] (T98G and GBM43, 5 μM PPF 24 hours then 250 μM TMZ 24 hours) is “significantly decreased”. For the same compound, the “TROY expression over time” value in data set [3] (GBM10 and GBM43 cells, 5 μM PPF for varying lengths of time) is recorded as “decreased in a time-dependent manner”. For the same compound, the TROY expression entry in data set [3] (T98G cells, 1 μM PPF, 6 hrs) is recorded as “significant suppression”; in [3] (T98G cells, PPF 1 to 20 μM, 6 hrs), “decreased in concentration dependent manner”; in data set [3] (T98G, GBM10 and GBM43 cells, 5 μM PPF, 24 hrs), “effective in lowering TROY expression”. Also, the glioma cell invasion entry in data set [4] was “significantly inhibited”. In addition, in data set [5], the TNFR1 expression entry is “did not affect”. The NF-κB phosphorylation entry in data set [6] is reported as “effectively decreased”. The cell viability result in data set [7] was “negligible loss of cell viability”. The EGFR expression result in [8] is recorded as “did not affect”. Besides, the “lamellipodia formation and membrane ruffling” value in [9] is listed as “significantly decreased”. Moreover, in data set [10], the Rac1 activation entry was “inhibited”. The migration of microglia entry in data set [11] is reported as “inhibit”. In addition, in data set [12], the “TROY expression in microglia” value is recorded as “decreasing”. For the same compound, the tumor growth result in data set [13] is recorded as “decreased”. Also, the therapeutic efficacy result in [14] (Alzheimer's disease and vascular dementia) is reported as “therapeutic efficacy”. In data set [14] (Reference 39), the side effect profile entry is on record as “minimal side effect profile”. The “proliferation of glioma cells” value in [15] is reported as “did not affect”. Also, in [16], the “cleaved PARP, PPF and TMZ compared to TMZ alone” value was “increase”.
